From ChEMBL document CHEMBL4152374, “A new phenolic series of indenopyridinone as topoisomerase inhibitors: Design, synthesis, and structure-activity relationships” (Bioorg Med Chem, 2018)
Blank lines part the entries; values can stand above or below the compound they belong to.

Experiments:
HeLa = test: Antiproliferative activity against human HeLa cells after 72 hrs by EZ-CYTOX reagent based assay; assay type: functional, cell-based
HCT-15 = test: Antiproliferative activity against human HCT15 cells after 72 hrs by EZ-CYTOX reagent based assay; assay type: functional, cell-based; conditions: HCT-15, 72 h
T47D = test: Antiproliferative activity against human T47D cells after 72 hrs by EZ-CYTOX reagent based assay; assay type: functional, cell-based
[1] = target: T1, DNA topoisomerase 1 (Homo sapiens) (UniProt P11387); test: Inhibition of human topoisomerase 1 using supercoiled pBR322 plasmid DNA as substrate at 20 uM after 30 mins by agarose gel electrophoresis method relative to control
T1 sequence (whole entry): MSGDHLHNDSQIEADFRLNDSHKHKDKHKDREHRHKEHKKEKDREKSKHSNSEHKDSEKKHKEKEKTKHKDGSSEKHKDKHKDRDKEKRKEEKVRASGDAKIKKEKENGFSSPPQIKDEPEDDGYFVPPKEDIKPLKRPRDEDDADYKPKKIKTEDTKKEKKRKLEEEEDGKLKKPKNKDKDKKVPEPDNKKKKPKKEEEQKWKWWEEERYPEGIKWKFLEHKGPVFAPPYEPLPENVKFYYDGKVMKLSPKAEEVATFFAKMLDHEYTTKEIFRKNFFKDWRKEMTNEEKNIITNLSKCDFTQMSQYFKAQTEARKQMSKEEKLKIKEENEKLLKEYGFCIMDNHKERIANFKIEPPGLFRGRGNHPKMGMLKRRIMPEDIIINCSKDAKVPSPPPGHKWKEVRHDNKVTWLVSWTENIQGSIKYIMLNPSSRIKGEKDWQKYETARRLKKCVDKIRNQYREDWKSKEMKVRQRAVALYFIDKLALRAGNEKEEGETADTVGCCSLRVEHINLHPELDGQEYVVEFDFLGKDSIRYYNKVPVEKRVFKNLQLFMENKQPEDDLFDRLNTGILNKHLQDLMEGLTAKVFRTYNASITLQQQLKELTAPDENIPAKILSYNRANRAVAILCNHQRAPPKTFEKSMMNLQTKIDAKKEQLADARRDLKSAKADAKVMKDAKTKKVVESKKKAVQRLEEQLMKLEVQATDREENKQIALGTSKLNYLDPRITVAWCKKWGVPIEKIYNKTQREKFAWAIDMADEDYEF

[2] = target: T1, DNA topoisomerase 1 (Homo sapiens); test: Inhibition of human topoisomerase 1 using supercoiled pBR322 plasmid DNA as substrate at 100 uM after 30 mins by agarose gel electrophoresis method relative to control
[3] = target: DNA topoisomerase 2-alpha (Homo sapiens) (UniProt P11388); test: Inhibition of human topoisomerase 2-alpha using supercoiled pBR322 plasmid DNA as substrate at 20 uM after 30 mins by agarose gel electrophoresis method relative to control
[4] = target: DNA topoisomerase 2-alpha (Homo sapiens) (UniProt P11388); test: Inhibition of human topoisomerase 2-alpha using supercoiled pBR322 plasmid DNA as substrate at 100 uM after 30 mins by agarose gel electrophoresis method relative to control
[5] = target: DNA topoisomerase 2-alpha (Homo sapiens) (UniProt P11388); test: Inhibition of human topoisomerase 2-alpha using supercoiled pBR322 plasmid DNA as substrate at 100 uM after 30 mins by agarose gel electrophoresis method relative to etoposide
[6] = target: DNA topoisomerase 2-alpha (Homo sapiens) (UniProt P11388); test: Inhibition of human topoisomerase 2-alpha using supercoiled pBR322 plasmid DNA as substrate at 20 uM after 30 mins by agarose gel electrophoresis method relative to etoposide
Calf thymus DNA = test: Inhibition of EtBr binding to calf thymus DNA up to 40 uM by fluorescence spectroscopy; assay type: nucleic-acid assay; conditions: Bos taurus

Chain of DNA topoisomerase 2-alpha (Homo sapiens) (P11388 whole entry): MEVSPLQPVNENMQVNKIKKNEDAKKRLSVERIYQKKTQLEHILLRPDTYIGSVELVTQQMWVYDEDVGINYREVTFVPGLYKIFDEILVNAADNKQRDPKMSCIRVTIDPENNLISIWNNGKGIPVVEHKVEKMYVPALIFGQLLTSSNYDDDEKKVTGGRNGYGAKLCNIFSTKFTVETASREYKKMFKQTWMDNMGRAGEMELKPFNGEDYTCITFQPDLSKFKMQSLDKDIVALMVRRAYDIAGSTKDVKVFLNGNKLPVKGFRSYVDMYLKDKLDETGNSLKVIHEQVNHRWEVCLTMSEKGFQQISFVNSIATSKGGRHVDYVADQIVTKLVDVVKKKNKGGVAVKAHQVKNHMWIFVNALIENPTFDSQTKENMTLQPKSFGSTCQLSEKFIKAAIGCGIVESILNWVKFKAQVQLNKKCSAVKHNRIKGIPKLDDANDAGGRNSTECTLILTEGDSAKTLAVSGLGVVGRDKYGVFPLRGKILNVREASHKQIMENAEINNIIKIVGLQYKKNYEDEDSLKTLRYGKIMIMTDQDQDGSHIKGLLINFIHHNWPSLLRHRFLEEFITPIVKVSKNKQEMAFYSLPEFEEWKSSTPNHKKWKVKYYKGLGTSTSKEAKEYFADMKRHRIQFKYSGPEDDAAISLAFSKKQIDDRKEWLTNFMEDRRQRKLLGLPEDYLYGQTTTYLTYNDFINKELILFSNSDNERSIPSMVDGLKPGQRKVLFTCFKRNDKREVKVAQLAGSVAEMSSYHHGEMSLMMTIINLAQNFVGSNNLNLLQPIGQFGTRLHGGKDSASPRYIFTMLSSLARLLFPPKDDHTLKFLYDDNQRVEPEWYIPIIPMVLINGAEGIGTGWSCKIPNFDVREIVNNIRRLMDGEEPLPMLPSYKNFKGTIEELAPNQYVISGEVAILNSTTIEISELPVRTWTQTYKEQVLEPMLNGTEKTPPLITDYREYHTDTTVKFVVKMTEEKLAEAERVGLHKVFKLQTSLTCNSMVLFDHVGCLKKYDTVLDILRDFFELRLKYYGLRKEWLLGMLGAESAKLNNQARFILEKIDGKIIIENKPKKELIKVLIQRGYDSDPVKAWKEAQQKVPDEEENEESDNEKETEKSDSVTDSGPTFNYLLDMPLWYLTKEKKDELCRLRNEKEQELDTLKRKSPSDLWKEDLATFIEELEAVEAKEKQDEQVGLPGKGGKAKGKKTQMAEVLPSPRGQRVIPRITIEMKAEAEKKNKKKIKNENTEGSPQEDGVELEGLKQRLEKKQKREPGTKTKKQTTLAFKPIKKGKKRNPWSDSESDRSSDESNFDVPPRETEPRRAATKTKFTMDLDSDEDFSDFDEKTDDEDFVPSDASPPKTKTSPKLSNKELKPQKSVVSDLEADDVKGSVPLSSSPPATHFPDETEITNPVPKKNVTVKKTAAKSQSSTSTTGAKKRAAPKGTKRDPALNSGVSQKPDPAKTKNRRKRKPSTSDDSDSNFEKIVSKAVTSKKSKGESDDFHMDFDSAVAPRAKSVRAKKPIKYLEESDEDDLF

SMILES: COc1cc([C@@H]2c3cc4c(cc3[C@@H](O[C@@H]3O[C@@H]5CO[C@@H](C)O[C@H]5[C@H](O)[C@H]3O)[C@H]3COC(=O)[C@H]23)OCO4)cc(OC)c1O [ETOPOSIDE]
IC50 (HeLa): 9.21 µM | IC50 (HCT-15): 2.94 µM | IC50 (T47D): 0.4 µM

SMILES: Oc1ccc(-c2cc(-c3ccccc3)nc3c2C(O)c2ccccc2-3)cc1 (configuration not stated)
inhibition [1]: 0% | inhibition [2]: 63.9% | IC50 (HeLa): > 50 µM | inhibition [3]: 22.6% | IC50 (HCT-15): > 50 µM | IC50 (T47D): 3.25 µM | inhibition [4]: 53.6%

SMILES: O=C1c2ccccc2-c2nc(-c3ccccc3O)cc(-c3cccc(O)c3)c21
fold change (FC) [5]: 1.15 to 1.23 | inhibition [2]: 0% | IC50 (HeLa): 4.84 µM | fold change (FC) [6]: 0.26 | inhibition [3]: 12.8% | IC50 (HCT-15): 6.09 µM | IC50 (T47D): > 50 µM | inhibition [4]: 86.5%

SMILES: O=C1c2ccccc2-c2nc(-c3ccccc3O)cc(-c3ccccc3)c21
fold change (FC) [5]: 0.06 | inhibition [2]: 0% | IC50 (HeLa): 31.7 µM | IC50 (HCT-15): > 50 µM | IC50 (T47D): 10.5 µM | inhibition [4]: 4.9%

SMILES: Oc1ccc(-c2cc(-c3ccccc3O)c3c(n2)-c2ccccc2C3O)cc1 (configuration not stated)
inhibition [2]: 11.5% | IC50 (HeLa): 10.8 µM | inhibition [3]: 12.1% | IC50 (HCT-15): 13 µM | IC50 (T47D): 4.28 µM | inhibition [4]: 57.7%

SMILES: O=C1c2ccccc2-c2nc(-c3ccc(O)cc3)cc(-c3cccc(O)c3)c21
inhibition [1]: 7.5% | fold change (FC) [5]: 1.02 | inhibition [2]: 75.5% | IC50 (HeLa): 4.32 µM | fold change (FC) [6]: 1.38 | inhibition [3]: 60.5% | IC50 (HCT-15): 1.96 µM | IC50 (T47D): 1.49 µM | inhibition [4]: 71.9%

SMILES: COc1cc(NS(C)(=O)=O)ccc1Nc1c2ccccc2nc2ccccc12
inhibition (Calf thymus DNA): Dose-dependent effect

SMILES: Oc1ccc(-c2cc(-c3cccc(O)c3)c3c(n2)-c2ccccc2C3O)cc1 (configuration not stated)
inhibition [1]: 61.7% | inhibition [2]: 71.9% | IC50 (HeLa): 7.08 µM | inhibition [3]: 26.7% | IC50 (HCT-15): 9.76 µM | IC50 (T47D): 1.7 µM | inhibition [4]: 60.9%

SMILES: Oc1cccc(-c2cc(-c3cccc(O)c3)c3c(n2)-c2ccccc2C3O)c1 (configuration not stated)
inhibition [2]: 20.1% | IC50 (HeLa): 6.91 µM | inhibition [3]: 17.8% | IC50 (HCT-15): 6.2 µM | IC50 (T47D): 1.61 µM | inhibition [4]: 55.1%

The next lines start with results.

fold change (FC) [5]: 0.03 | inhibition [2]: 0% | inhibition [4]: 2.6%
SMILES: O=C1c2ccccc2-c2nc(-c3cccc(O)c3)cc(-c3ccccc3O)c21
IC50 (HeLa): 1.52 µM | IC50 (HCT-15): 1.36 µM | IC50 (T47D): 0.11 µM

inhibition [1]: 0% | fold change (FC) [5]: 0.9 | inhibition [2]: 50% | fold change (FC) [6]: 0.35 | inhibition [3]: 15.2% | inhibition [4]: 63.3%
SMILES: O=C1c2ccccc2-c2nc(-c3ccccc3)cc(-c3ccc(O)cc3)c21
IC50 (HeLa): > 50 µM | IC50 (HCT-15): > 50 µM | IC50 (T47D): > 50 µM

fold change (FC) [5]: 0.32 | inhibition [2]: 0.5% | inhibition [4]: 22.5%
SMILES: O=C1c2ccccc2-c2nc(-c3cccc(O)c3)cc(-c3ccccc3)c21
IC50 (HeLa): > 50 µM | IC50 (HCT-15): > 50 µM | IC50 (T47D): > 50 µM

fold change (FC) [5]: 0.98 | inhibition [2]: 25.7% | fold change (FC) [6]: 0.47 | inhibition [3]: 20.8% | inhibition [4]: 68.9%
SMILES: O=C1c2ccccc2-c2nc(-c3cccc(O)c3)cc(-c3cccc(O)c3)c21
IC50 (HeLa): > 50 µM | IC50 (HCT-15): > 50 µM | IC50 (T47D): 1.24 µM
